pIC50: −log10 of the molar value. “Also recorded” adds a separate entry of the source.

Experiment [1] deals with S. cerevisiae ΔILV3 expressing AstD. In words: Growth inhibition of S. cerevisiae ΔILV3 in ILV dropout media. Format: cell-based. The note with it: Saccharomyces cerevisiae, read-out: IC50 of growth inhibition, yeast expressing AstD. As to the method: Growth inhibition assay of S. cerevisiae on plates or in the tubes. S. cerevisiae was grown in isoleucine, leucine and valine (ILV) dropout media (20 g/L glucose, 0.67 g/L Difco™ Yeast Nitrogen Base w/o amino acids, 18 mg/L adenine, arginine 76 mg/L, asparagine 76 mg/L, aspartic acid 76 mg/L, glutamic acid 76 mg/L, histidine 76 mg/L, lysine 76 mg/L, methionine 76 mg/L, phenylalanine 76 mg/L, serine 76 mg/L, threonine 76 mg/L, tryptophan 76 mg/L, tyrosine 76 mg/L) to test growth inhibition of AA on S. cerevisiae. S. cerevisiae was incubated at 28° C. until OD600 of the control strain without AA treatment reached about 0.8. The ratio of yeast OD600 in media with AA treatment to yeast OD600 in media without AA was calculated as the percentage of growth inhibition. The inhibition curve was plotted as percentage of inhibition versus AA concentrations. […] The growth curves of TY05, TY06 and TY07 were also plotted (FIG. 29A-29D). The OD600 was recorded for every 20 minutes over a total of 50 h. The inhibition percentage can be calculated by following equation: […]

The test system of experiment [2] is green bean seedlings. Nature of the experiment: Agar-based plant growth inhibition assay on MS media. Format: in vivo. The following applies: 50 μM aspterric acid, day 3 and day 7. The protocol:
Sterile green bean seedlings were plated on MS media containing 50 μM aspterric acid and 1% DMSO (to increase the solubility of aspterric acid) on day 0. MS media containing only 1% DMSO was used as a control. Growth was assessed on day 3 and day 7.

Experiment [3] deals with tomato seedlings (Solanum lycopersicum). Described as above. Format: in vivo. The following applies: 50 μM aspterric acid. As to the method:
Sterile tomato seedlings were plated on MS media containing 50 μM aspterric acid and 1% DMSO (to increase the solubility of aspterric acid) or on MS media containing 50 μM glyphosate on day 0. MS media containing only 1% DMSO was used as a control. Growth was assessed on day 3 and day 7.
(§1) Growth inhibition assay of plants on plates or in the tubes. MS (2.16 g/L Murashige and Skoog basal medium, 8 g/L sucrose, 8 g/L agar) media was used to test the growth inhibition of AA on A. thaliana, Solanum lycopersicum, and Zea mays. A. thaliana, S. lycopersicum, G. max and Z. mays were grown under long day condition (16/8 h light/dark) using cool-white fluorescence bulbs as the light resource at 23° C. AA was dissolved in ethanol and added to the media before inoculating strains or growing plants. The media of control treatment contains the same amount of ethanol, but without AA.

The test system of experiment [4] is Arabidopsis thaliana Col-0 flowers. In words: Cross experiment, AA as chemical hybridization agent. The format is in vivo. The following applies: 250 μM AA; for offspring obtained: listed as AA. As to the method:
Flowers of Arabidopsis thaliana Col-0 plants were treated with aspterric acid. The treated flowers that were missing all six fertile stamens were selected as the female parent in a cross with a male parent of known genetic identity. Non-treated Arabidopsis plants containing a BASTA resistant gene were used as male parent to donate pollen to the plants where the flowers were missing all six fertile stamens. 2-week old F1 progeny resulting from the cross were treated with Finale (11.3% Glufosinate-ammonium) at a 1:2000 dilution.
To make male sterile A. thaliana, AA was added to chemical hybridization agent (CHA) formulation (250 μM AA, 2% ethanol, 0.1% Tween-80, 1% corn oil in water), which has less inhibition effect on the growth of A. thaliana. Flowers of the AA treated Col-0 were selected as the female parent. […] 2-week old F1 progeny resulting from the cross were treated by Finale (11.3% glufosinate-ammonium) at 1:2000 dilution.

Experiment [5] relates to glufosinate resistant A. thaliana. Nature of the experiment: Plant growth inhibition assay by spraying (250 μM AA in Finale + ethanol). Format: in vivo, Arabidopsis thaliana. The note with it: glufosinate resistant plants without astD, listed as AA. The protocol: Plant growth inhibition assay by spraying. AA was firstly dissolved in ethanol and then added to solvent (0.06 g/L Finale® Bayer Inc.+20 g/L EtOH). The control plants were treated with solvent containing ethanol only. A. thaliana that are resistant to glufosinate (containing the bar gene) were grown under long day conditions (16/8 h light/dark) using cool-white fluorescence bulbs as the light resource at 23° C. Spraying treatments began when the seeds germinated, and was repeated once every two days with approximately 0.4 mL AA solution per time per pot.

Experiment [6] relates to Zea mays. In words: Plant growth inhibition assay on MS media. The format is in vivo. The note with it: 50 μM AA. The protocol: as §1
The target of experiment [7] is T1, AstD (Aspergillus terreus, UniProt Q0CPG9).
T1 construct: […]; 6xHis; made in house; host or cells: E. coli BL21 (DE3)
In words: DHAD enzymatic inhibition assay (phenylhydrazine derivatization, LC-MS). The following applies: 8 mM aspterric acid. Format: biochemical. As to the method:
Enzymatic activity reactions were carried out in […] volumes containing 50 mM storage buffer, 10 mM (±)-Sodium 2,3-dihydroxyisovalerate hydrate (DHAD substrate) and 1 μM purified DHAD enzyme. After incubation for 30 minutes at 30° C., the reaction was stopped by adding an equal volume of ethanol. 1/10 volumes of 100 mM phenylhydrozine was added at room temperature for 30 minutes to derivatize the DHAD-synthesized molecule (3-methyl-2-oxo-butanoic acid) into a detectable derivatization product (DDP). See FIG. 5A for an overview of reactions.
Inhibition assays were carried out according to the reactions described above by incubating purified DHAD enzymes (either the housekeeping DHAD from Aspergillus terreus, the housekeeping DHAD from Arabidopsis thaliana, or AstD from Aspergillus terreus) with aspterric acid at various concentrations. For AstD, up to 8 mM of aspterric acid was tested. Derivatization with phenylhydrozine, LC-MS analysis, and DDP detection by UV absorption at 350 nm was carried out. The half maximal inhibitory concentration (IC50) and the effect of aspterric acid on the enzyme kinetics of each purified DHAD enzyme was calculated based on the initial reaction rates observed in the inhibition assays.
Biochemical assay of DHADs. […] The area of the HPLC peak with UV absorption at 350 nm was used to quantify the amount of 6. […]

[8] abbreviates: female AA treated wild type x male un-treated glufosinate resistant plant.

T1 sequence (Q0CPG9 112-598): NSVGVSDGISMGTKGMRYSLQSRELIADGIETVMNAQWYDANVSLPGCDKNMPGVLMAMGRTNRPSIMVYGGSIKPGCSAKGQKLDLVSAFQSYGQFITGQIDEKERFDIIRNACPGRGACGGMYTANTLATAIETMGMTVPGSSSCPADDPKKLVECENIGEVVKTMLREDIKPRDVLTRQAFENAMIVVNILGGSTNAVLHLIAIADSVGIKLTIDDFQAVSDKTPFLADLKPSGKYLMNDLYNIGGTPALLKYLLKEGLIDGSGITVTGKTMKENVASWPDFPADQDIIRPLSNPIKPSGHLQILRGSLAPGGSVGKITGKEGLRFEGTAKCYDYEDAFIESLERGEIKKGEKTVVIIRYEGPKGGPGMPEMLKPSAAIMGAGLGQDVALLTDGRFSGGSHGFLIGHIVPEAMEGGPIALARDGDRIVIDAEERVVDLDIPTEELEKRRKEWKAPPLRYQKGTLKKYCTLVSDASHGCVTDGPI

`CC(C)=C1CC[C@]23CO[C@H](C2)[C@@](O)(C(=O)O)CC[C@@H]13` [aspterric acid]: the pIC50 in experiment [1] is ~3.70. Besides, in experiment [2], the “growth of green bean seedlings on MS media” value was “significant vegetative growth inhibition”. Also, the “growth of tomato (Solanum lycopersicum) on MS media” value was “significant vegetative growth inhibition” in experiment [3]; “effective inhibitor of root development and plant growth” in experiment [3] (listed as AA). Moreover, the offspring obtained entry in experiment [4] (female AA treated wild type x male AA treated glufosinate resistant plant) was “No offspring was obtained and No”; in experiment [4] (setting [8]) it was “Offspring was obtained and Yes”. In experiment [4] (setting [8]), the inherit resistance result is given as “Yes”. For the same molecule, the “plant growth after spray of AA in Finale” value in experiment [5] is “severely inhibited plant growth; also recorded: strong growth inhibitory phenotype”. Moreover, the “root development and plant growth of Zea mays on MS media” value in experiment [6] is “effective inhibitor of root development and plant growth”. Moreover, the entries for the “inhibition of AstD” value in experiment [7] and in experiment [7] (listed as AA) were “no inhibition” and “not inhibited”, respectively.

Broadly, the pIC50 is −log10 of the IC50, conventionally taken in molar units.

For the origin of these results see patent US20200037609A1, “HERBICIDAL COMPOSITIONS AND METHODS OF USE THEREOF” (The Regents of the University of California, priority 2017, published 2020).
